The text below walks through data of patent publication US20210008175A1, “BACTERIOPHAGE LYSIN AND ANTIBIOTIC COMBINATIONS AGAINST GRAM POSITIVE BACTERIA” (priority 2012, published 2021).

Assay [1] deals with S. aureus. Briefly: Cell envelope binding of BODIPY-fluorescein-labeled antibiotics. The class given is cell-based. How it is done:
As a complement to the synergy studies, daptomycin and vancomycin cell envelope-binding was examined using BODIPY-fluorescein-labeled antibiotics in the presence and absence of sub-MIC levels of CF-301. […] Similarly, cell wall-labeling with vancomycin occurs within 5 minutes in the presence of CF-301 (⅛^th MIC) versus 30 minutes without CF-301 (FIG. 20B). For both antibiotics, the labeling was first observed at bacterial division planes.

Assay [2] relates to Staphylococcus aureus (MRSA and MSSA strains). The assay can be described thus: Synergy time-kill assay (6 hours, combination compared to most active single agent). It is filed as cell-based. Conditions: ½ MIC PlySs2 or ¼ MIC vancomycin alone, up to 6 hours.
Another assay concerns Staphylococcus aureus. Briefly: MIC, broth microdilution (CLSI M07-A9). The class given is cell-based.
For assay [3], the system named is MRSA Staphylococcus aureus strain (MW2). The assay can be described thus: microbe, parasite or virus in culture. The note with it: for MIC: Staphylococcus aureus, MRSA, 600 h. It is filed as cell-based.
Assay [4] concerns S. aureus. The assay can be described thus: Murine bacteremia model, survival. It is filed as in vivo, BALB/c mice. Conditions: high challenge (10^9 CFU MRSA MW2), dosing at 2 hours; vancomycin 110 mg/kg twice daily, PlySs2 5.25 mg/kg (FIG. 27E).
The test system of assay [5] is Staphylococcus aureus (MRSA and MSSA strains). Briefly: Time kill assay, single agents at 1×MIC (CLSI). It is filed as cell-based. The note with it: 1×MIC.
Where [6] appears, read: DRSA (n = 8), with reducing agent.

The structures appear in SMILES notation. Values after ≈ are worked out from the molar mass of the structure shown. Read-outs that look alike come from different tables or passages of the source.

In the case of `CN[C@H](CC(C)C)C(=O)N[C@H]1C(=O)N[C@@H](CC(N)=O)C(=O)N[C@H]2C(=O)N[C@H]3C(=O)N[C@H](C(=O)N[C@H](C(=O)O)c4cc(O)cc(O)c4-c4cc3ccc4O)[C@H](O)c3ccc(c(Cl)c3)Oc3cc2cc(c3O[C@@H]2O[C@H](CO)[C@@H](O)[C@H](O)[C@H]2O[C@H]2C[C@](C)(N)[C@H](O)[C@H](C)O2)Oc2ccc(cc2Cl)[C@H]1O` [Vancomycin, vancomycin], the “time to cell wall-labeling with vancomycin” value with S. aureus [1] (in the presence of CF-301 (⅛^th MIC)) was no more than 5 min; in the assay on S. aureus [1] (without CF-301), 30 min. The “effectiveness alone at sub-MIC doses” value in assay [2] was “ineffective or poorly effective”. In addition, the MIC90 was determined as 1 in the assay on Staphylococcus aureus (setting [6]); 1 against Staphylococcus aureus (LRSA (n = 5), with reducing agent); 1 against Staphylococcus aureus (MRSA (n = 45), with reducing agent); 1 in the assay with Staphylococcus aureus (MSSA (n-28), with reducing agent); 0.7 µM (≈ 1.01 µg/mL) against Staphylococcus aureus (Staphylococcus aureus); 0.7 µM (≈ 1.01 µg/mL) in the assay on Staphylococcus aureus (Staphylococcus aureus, MRSA). In addition, the MIC90 against Staphylococcus aureus (Staphylococcus aureus, MSSA) is 0.7 µM (≈ 1.01 µg/mL); in the assay with Staphylococcus aureus (Staphylococcus aureus, VISA), 2.7 µM (≈ 3.91 µg/mL); against Staphylococcus aureus (Staphylococcus aureus, VRSA), greater than 10.6 µM; in the assay on Staphylococcus aureus (VISA (n = 10), with reducing agent) it was 4; in the assay with Staphylococcus aureus (VRSA (n = 14), with reducing agent), greater than 16. In addition, the “MIC90 [uM]” value in the assay with Staphylococcus aureus (setting [6]) is 0.7 µM (≈ 1.01 µg/mL). Further, the MIC in assay [3] (read-out: vancomycin MIC, ending values, passaged with PlySs2 (8 ug/ml) plus vancomycin, 25 day) is 4 mg/L; in assay [3] (read-out: vancomycin MIC, ending values, three vancomycin-only cultures, 25-day study), 16 mg/L (≈ 11 µM). Further, the “antibiotic MIC, starting value” in assay [3] (before serial passage) is 1 mg/L. Besides, the “increase of vancomycin MIC” value in assay [3] (passaged with PlySs2 (8 ug/ml) plus vancomycin) is on record as 2 to 4 fold; in assay [3] (vancomycin-only cultures, 25-day study) it was 16 fold. For the same compound, the “vancomycin MIC, ending values” in assay [3] (passaged with PlySs2 (8 ug/ml) plus vancomycin, 25 day) amounted to 2 mg/L. For the same compound, the “24 hour survival rate” value in the assay with S. aureus [4] came out at 20%. Further, the “72 hour survival rate” value in the assay on S. aureus [4] is 3%. Moreover, the “kill within 6 hours” value in assay [5] stood at 2 log10.
